PMC12494546, “Structural basis of heme scavenging by the ChtA and HtaA hemophores in Corynebacterium diphtheriae” (The Journal of Biological Chemistry, 2025)

Assays:
[1] = target: T1, ChtA^CR (WT) (Corynebacterium diphtheriae, UniProt Q6NGJ3); test: Isothermal titration calorimetry with apo-protein injected into hemin chloride at 25 °C in 50 mM Tris-HCl pH 8.0, 200 mM NaCl, 5% DMSO, fitted to a one-site binding model.; settings: SEM, n = 3
T1 construct: gene DIP1520; CR domain, ChtA residues 112-291 (K112-G291); N-terminal SUMO/6xHis tag removed by ULP1; apo-form
Description: (§1) Isothermal titration calorimetry
(§2) Protein samples were equilibrated in titration buffer supplemented with 5% (v/v) DMSO. […] Binding isotherms were fit to a one-site binding model using the program ORIGIN ([91]).

[2] = target: T2, K177G (Corynebacterium diphtheriae, UniProt Q6NGJ3, K177G); test: as above; settings: SEM, n = 3
T2 construct: gene DIP1520; CR domain, ChtA residues 112-291; N-terminal SUMO/6xHis tag removed by ULP1; apo-form
Description: as §1, §2

[3] = target: T3, K177G + Y178H (Corynebacterium diphtheriae, UniProt Q6NGJ3, K177G/Y178H); test: as above; settings: SEM, n = 3
T3 construct: gene DIP1520; CR domain, ChtA residues 112-291; N-terminal SUMO/6xHis tag removed by ULP1; apo-form
Description: as §1, §2

[4] = target: T4, Y129A (Corynebacterium diphtheriae, UniProt Q6NGJ3, Y129A); test: as above; settings: n = 3
T4 construct: gene DIP1520; CR domain, ChtA residues 112-291; N-terminal SUMO/6xHis tag removed by ULP1; apo-form
Description: as §1, §2

[5] = target: T5, Y178A (Corynebacterium diphtheriae, UniProt Q6NGJ3, Y178A); test: as above; settings: SEM, n = 3
T5 construct: gene DIP1520; CR domain, ChtA residues 112-291; N-terminal SUMO/6xHis tag removed by ULP1; apo-form
Description: as §1, §2

[6] = target: T6, Y178H (Corynebacterium diphtheriae, UniProt Q6NGJ3, Y178H); test: as above; settings: SEM, n = 3
T6 construct: gene DIP1520; CR domain, ChtA residues 112-291; N-terminal SUMO/6xHis tag removed by ULP1; apo-form
Description: as §1, §2

[7] = target: T7, HtaA^CR1 (Corynebacterium diphtheriae, UniProt Q6NIZ1); test: Hemin partitioning between pairs of CR domains at equilibrium measured by native nano-ESI-MS in 50 mM ammonium acetate pH 6.9 at 24 °C, with Krel converted to KD using the ITC KD of ChtA^CR as reference.; format: binding; settings: read-out: estimated KD values for hemin
T7 construct: gene DIP0625; N-terminal CR domain CR1, HtaA residues 36-221 (methods; S37-G214 in results); N-terminal SUMO/6xHis tag removed by ULP1
Description: (§3) The C. diphtheriae hemin-uptake system contains six CR domains that are located at distinct sites outside the cell (Fig. 1). […] Together, they represent nearly the full complement of C. diphtheriae’s CR domains (only the domains from ChtB and ChtC are missing, but they are expected to have similar binding properties as their paralogs, HtaB and ChtA, respectively). […] Similar measurements were made for the following protein pairs: HtaA^CR2/HtaB^CR, HtaA^CR1/HtaB^CR, HtaA^CR2/HtaA^CR1, ChtA^CR/HtaA^CR2, and ChtA^CR/HtaB^CR (Table S4).
(§4) nESI-MS was used for ligand (heme)-competition experiments between CR domain pairs to determine their relative heme dissociation constant Krelative (Krel) ([37], [56]). In this approach, two different CR domains (e.g. a >90% heme-loaded “heme donor” and a <10% heme-loaded “heme acceptor” CR domain) are mixed and allowed to come to equilibrium (>6 h, 24 °C). The resulting mixture is then analyzed by nESI-MS, where the apo- and holo-abundance of each CR domain is determined from the sum peak intensity from each of their charge states as described previously ([37]). The relative affinity between the CR pair tested can be determined by their nESI-MS abundances according to Equation 1, which is derived from the ratio of each CR’s KD for heme. Importantly, this analysis is independent of [heme] and Krel should be consistent across different concentrations of [heme donor] and [heme acceptor]; thus, we used at least three different holo-donor and apo-acceptor stoichiometry ratios to determine each Krel reported in Table S4.(eq. 1) KRelative=[CR^hemeacceptor][CR^hemedonor·heme]/[CR^hemedonor][CR^hemeacceptor·heme]=Ab(CR^hemeacceptor)Ab(CR^hemedonor·heme)/Ab(CR^hemedonor)Ab(CR^hemeacceptor·heme)
(§5) For nESI-MS heme-competition experiments, CR domains were first buffer-exchanged into 50 mM ammonium acetate (pH 6.9) using dialysis or gel filtration and protein concentration was determined by bicinchoninic acid assay or UV-visible absorbance at 280 nm. […]

[8] = target: T8, HtaA^CR2 (Corynebacterium diphtheriae, UniProt Q6NIZ1); test: as above; format: binding; settings: read-out: estimated KD values for hemin
T8 construct: gene DIP0625; C-terminal CR domain CR2, HtaA residues 344-506 (G344-G506); N-terminal SUMO/6xHis tag removed by ULP1
Description: as §3, §4, §5

[9] = target: T9, HtaB^CR (Corynebacterium diphtheriae, UniProt Q6NIY7); test: as above; format: binding; settings: read-out: estimated KD values for hemin
T9 construct: gene DIP0629; CR domain, HtaB residues 30-273; N-terminal SUMO/6xHis tag removed by ULP1
Description: as §3, §4, §5

T8 sequence (Q6NIZ1 entry or part of it): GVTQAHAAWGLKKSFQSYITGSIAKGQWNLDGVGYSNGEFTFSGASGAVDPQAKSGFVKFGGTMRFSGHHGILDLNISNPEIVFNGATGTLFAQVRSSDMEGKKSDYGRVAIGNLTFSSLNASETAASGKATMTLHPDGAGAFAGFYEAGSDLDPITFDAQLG
T9 sequence (Q6NIY7 entry or part of it): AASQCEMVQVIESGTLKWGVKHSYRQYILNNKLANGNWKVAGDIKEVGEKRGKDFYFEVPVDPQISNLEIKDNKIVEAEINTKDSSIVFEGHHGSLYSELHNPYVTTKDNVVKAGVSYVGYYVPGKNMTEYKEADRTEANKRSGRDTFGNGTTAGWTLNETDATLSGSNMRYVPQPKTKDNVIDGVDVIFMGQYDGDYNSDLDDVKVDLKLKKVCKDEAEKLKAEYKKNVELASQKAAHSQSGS
T5 sequence (Q6NGJ3 112-291 Y178A): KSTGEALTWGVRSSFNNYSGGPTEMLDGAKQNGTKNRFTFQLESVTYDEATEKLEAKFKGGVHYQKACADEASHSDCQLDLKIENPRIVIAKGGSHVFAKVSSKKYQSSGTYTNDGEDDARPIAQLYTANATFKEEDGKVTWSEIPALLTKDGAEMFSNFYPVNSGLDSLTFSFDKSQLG
T1 sequence (Q6NGJ3 entry or part of it): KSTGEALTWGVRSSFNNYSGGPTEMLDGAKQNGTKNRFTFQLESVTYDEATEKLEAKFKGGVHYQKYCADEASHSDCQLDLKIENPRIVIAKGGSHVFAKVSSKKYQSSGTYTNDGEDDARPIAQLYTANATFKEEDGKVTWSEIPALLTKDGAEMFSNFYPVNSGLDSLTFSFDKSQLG
T2 sequence (Q6NGJ3 112-291 K177G): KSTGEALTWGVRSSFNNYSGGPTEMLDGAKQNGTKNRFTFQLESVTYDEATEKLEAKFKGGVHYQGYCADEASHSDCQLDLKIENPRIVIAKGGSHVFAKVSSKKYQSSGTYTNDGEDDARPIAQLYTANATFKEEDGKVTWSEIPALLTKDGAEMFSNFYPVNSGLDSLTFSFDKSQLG
T7 sequence (Q6NIZ1 entry or part of it): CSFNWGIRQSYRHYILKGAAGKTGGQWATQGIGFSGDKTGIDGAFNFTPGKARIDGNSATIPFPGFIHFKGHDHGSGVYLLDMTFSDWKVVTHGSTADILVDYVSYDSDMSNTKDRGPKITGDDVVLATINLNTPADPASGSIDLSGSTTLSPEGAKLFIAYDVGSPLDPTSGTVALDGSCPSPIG

C=CC1=C(C)c2cc3[nH]c(cc4nc(cc5[nH]c(cc1n2)c(C)c5CCC(=O)O)C(CCC(=O)O)=C4C)c(C)c3C=C.[Fe+3] [hemin, ferric heme (iron(III)-protoporphyrin IX; used as hemin chloride)]
Kd [1]: 0.0224 ± 0.0053 µM
Kd [2]: 0.0236 ± 0.0008 µM
Kd [3]: 0.0271 ± 0.009 µM
Kd [4]: > 0.5 µM
Kd [5]: 0.0466 ± 0.0096 µM
Kd [6]: 0.0548 ± 0.0019 µM
Kd [7]: 0.0011 µM
Kd [8]: 0.00085 µM
Kd [9]: 0.0054 µM
